{"source": "the supplement of paper PMC10307832", "assay_in_all_cases": "relative viability (nuclei count vs DMSO), 5 days (fraction); higher = more cells survive", "key": {"NCI-H2023": {"tested_on": "NCI-H2023", "summary_of_the_method": "(§1)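 Values are medians from duplicate plates. Each reflects relative viability, defined as the nuclei count of treated wells over that of vehicle wells. Lung cancer cell lines in 1536-well plates were pin-tool dosed one day after seeding with one drug alone or with a fixed anchor-drug dose plus five library-drug doses (not always all listed) in √10 steps, then fixed, stained and imaged at 4× after 5 days.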"}, "NCI-H1734": {"tested_on": "NCI-H1734", "summary_of_the_method": "as §1"}, "UMC-11": {"tested_on": "UMC-11", "summary_of_the_method": "as §1"}, "H3255": {"tested_on": "H3255", "summary_of_the_method": "as §1"}, "NCI-H1563": {"tested_on": "NCI-H1563", "summary_of_the_method": "as §1"}, "SW 900": {"tested_on": "SW 900", "summary_of_the_method": "as §1"}, "NCI-H2347": {"tested_on": "NCI-H2347", "summary_of_the_method": "as §1"}, "NCI-H520": {"tested_on": "NCI-H520", "summary_of_the_method": "as §1"}, "NCI-H2405": {"tested_on": "NCI-H2405", "summary_of_the_method": "as §1"}, "PC-14": {"tested_on": "PC-14", "summary_of_the_method": "as §1"}, "201T": {"tested_on": "201T", "summary_of_the_method": "as §1"}}}
{"smiles": "CCN(CC)CCCCNc1ncc2cc(-c3cc(OC)cc(OC)c3)c(NC(=O)NC(C)(C)C)nc2n1", "note": "+ Nc1nc2[nH]cc(CCc3ccc(C(=O)N[C@@H](CCC(=O)O)C(=O)O)cc3)c2c(=O)[nH]1 [Pemetrexed] (partner 0.2 µM)", "values": [{"measurement": "relative viability", "setting": "NCI-H2023; first compound 0.01 µM", "value": 0.264}, {"measurement": "relative viability", "setting": "NCI-H2023; first compound 0.03162 µM", "value": 0.225}, {"measurement": "relative viability", "setting": "NCI-H2023; first compound 0.1 µM", "value": 0.323}, {"measurement": "relative viability", "setting": "NCI-H2023; first compound 0.3162 µM", "value": 0.264}, {"measurement": "relative viability", "setting": "NCI-H2023; first compound 1 µM", "value": 0.219}, {"measurement": "relative viability", "setting": "NCI-H1734; first compound 0.01 µM", "value": 0.405}, {"measurement": "relative viability", "setting": "NCI-H1734; first compound 0.03162 µM", "value": 0.387}, {"measurement": "relative viability", "setting": "NCI-H1734; first compound 0.1 µM", "value": 0.418}, {"measurement": "relative viability", "setting": "NCI-H1734; first compound 0.3162 µM", "value": 0.409}, {"measurement": "relative viability", "setting": "NCI-H1734; first compound 1 µM", "value": 0.384}, {"measurement": "relative viability", "setting": "UMC-11; first compound 0.01 µM", "value": 0.862}, {"measurement": "relative viability", "setting": "UMC-11; first compound 0.03162 µM", "value": 0.767}, {"measurement": "relative viability", "setting": "UMC-11; first compound 0.1 µM", "value": 0.969}, {"measurement": "relative viability", "setting": "UMC-11; first compound 0.3162 µM", "value": 0.986}, {"measurement": "relative viability", "setting": "UMC-11; first compound 1 µM", "value": 0.696}, {"measurement": "relative viability", "setting": "H3255; first compound 0.01 µM", "value": 0.626}, {"measurement": "relative viability", "setting": "H3255; first compound 0.03162 µM", "value": 0.568}, {"measurement": "relative viability", "setting": "H3255; first compound 0.1 µM", "value": 0.615}, {"measurement": "relative viability", "setting": "H3255; first compound 0.3162 µM", "value": 0.632}, {"measurement": "relative viability", "setting": "H3255; first compound 1 µM", "value": 0.513}, {"measurement": "relative viability", "setting": "NCI-H1563; first compound 0.01 µM", "value": 0.72}, {"measurement": "relative viability", "setting": "NCI-H1563; first compound 0.03162 µM", "value": 0.601}, {"measurement": "relative viability", "setting": "NCI-H1563; first compound 0.1 µM", "value": 1.02}, {"measurement": "relative viability", "setting": "NCI-H1563; first compound 0.3162 µM", "value": 0.737}, {"measurement": "relative viability", "setting": "NCI-H1563; first compound 1 µM", "value": 0.633}, {"measurement": "relative viability", "setting": "SW 900; first compound 0.01 µM", "value": 0.529}, {"measurement": "relative viability", "setting": "SW 900; first compound 0.03162 µM", "value": 0.461}, {"measurement": "relative viability", "setting": "SW 900; first compound 0.1 µM", "value": 0.517}, {"measurement": "relative viability", "setting": "SW 900; first compound 0.3162 µM", "value": 0.509}, {"measurement": "relative viability", "setting": "SW 900; first compound 1 µM", "value": 0.309}, {"measurement": "relative viability", "setting": "NCI-H2347; first compound 0.01 µM", "value": 0.419}, {"measurement": "relative viability", "setting": "NCI-H2347; first compound 0.03162 µM", "value": 0.555}, {"measurement": "relative viability", "setting": "NCI-H2347; first compound 0.1 µM", "value": 0.423}, {"measurement": "relative viability", "setting": "NCI-H2347; first compound 0.3162 µM", "value": 0.412}, {"measurement": "relative viability", "setting": "NCI-H2347; first compound 1 µM", "value": 0.382}, {"measurement": "relative viability", "setting": "NCI-H520; first compound 0.01 µM", "value": 0.8}, {"measurement": "relative viability", "setting": "NCI-H520; first compound 0.03162 µM", "value": 0.694}, {"measurement": "relative viability", "setting": "NCI-H520; first compound 0.1 µM", "value": 0.555}, {"measurement": "relative viability", "setting": "NCI-H520; first compound 0.3162 µM", "value": 0.511}, {"measurement": "relative viability", "setting": "NCI-H520; first compound 1 µM", "value": 0.314}, {"measurement": "relative viability", "setting": "NCI-H2405; first compound 0.01 µM", "value": 0.994}, {"measurement": "relative viability", "setting": "NCI-H2405; first compound 0.03162 µM", "value": 1.06}, {"measurement": "relative viability", "setting": "NCI-H2405; first compound 0.1 µM", "value": 1.14}, {"measurement": "relative viability", "setting": "NCI-H2405; first compound 0.3162 µM", "value": 1.3}, {"measurement": "relative viability", "setting": "NCI-H2405; first compound 1 µM", "value": 1.04}, {"measurement": "relative viability", "setting": "PC-14; first compound 0.01 µM", "value": 0.123}, {"measurement": "relative viability", "setting": "PC-14; first compound 0.03162 µM", "value": 0.117}, {"measurement": "relative viability", "setting": "PC-14; first compound 0.1 µM", "value": 0.184}, {"measurement": "relative viability", "setting": "PC-14; first compound 0.3162 µM", "value": 0.139}, {"measurement": "relative viability", "setting": "PC-14; first compound 1 µM", "value": 0.141}, {"measurement": "relative viability", "setting": "201T; first compound 0.01 µM", "value": 0.351}, {"measurement": "relative viability", "setting": "201T; first compound 0.03162 µM", "value": 0.315}, {"measurement": "relative viability", "setting": "201T; first compound 0.1 µM", "value": 0.331}, {"measurement": "relative viability", "setting": "201T; first compound 0.3162 µM", "value": 0.349}, {"measurement": "relative viability", "setting": "201T; first compound 1 µM", "value": 0.313}]}
